Counter-ions that a name gives are not always drawn.
Columns and labels:
[1] = system: Human being; conditions: Oral; cited from earlier work
[2] = system: Mouse; conditions: Intraperitoneal; cited from earlier work
[3] = Measurement of hygroscopicity; format: physicochemical; conditions: 95% RH, 25° C.
[4] = system: diabetes mellitus induced experimental animal; experiment: Effect of drop in blood glucose level in diabetes mellitus induced (alloxan) rats; format: in vivo; conditions: for glucose concentration in blood: 0.05 mg as metformin, peritoneally
Description: This test supports the effect of the present invention.

[5] = system: male ICR mice; experiment: Test of drop in blood glucose after meal (OGTT with sucrose load); format: in vivo; conditions: for effect of drop in blood glucose compared to G8 (excipient control): 20 minutes after administration of sucrose
[6] = 100 mg/kg oral, 0 min after sucrose 2 g/kg
[7] = 100 mg/kg oral, 40 min after sucrose 2 g/kg
[8] = 100 mg/kg oral, 60 min after sucrose 2 g/kg
[9] = 100 mg/kg oral, 90 min after sucrose 2 g/kg
[10] = 100 mg/kg oral, 120 min after sucrose 2 g/kg
[11] = 100 mg/kg oral, 240 min after sucrose 2 g/kg
[12] = 200 mg/kg oral, 0 min after sucrose 2 g/kg
[13] = 200 mg/kg oral, 20 min after sucrose 2 g/kg
[14] = 200 mg/kg oral, 40 min after sucrose 2 g/kg
[15] = 200 mg/kg oral, 60 min after sucrose 2 g/kg
[16] = 200 mg/kg oral, 90 min after sucrose 2 g/kg
[17] = 200 mg/kg oral, 120 min after sucrose 2 g/kg
[18] = 200 mg/kg oral, 240 min after sucrose 2 g/kg
[19] = 400 mg/kg oral, 0 min after sucrose 2 g/kg
[20] = 400 mg/kg oral, 20 min after sucrose 2 g/kg
[21] = 400 mg/kg oral, 40 min after sucrose 2 g/kg
[22] = 400 mg/kg oral, 60 min after sucrose 2 g/kg
[23] = 400 mg/kg oral, 90 min after sucrose 2 g/kg
[24] = 400 mg/kg oral, 120 min after sucrose 2 g/kg
[25] = 400 mg/kg oral, 240 min after sucrose 2 g/kg

CC(=O)O [Acetic acid]
Dose (TDLo) [1]: 1,470 μg/kg

Cl [Hydrochloric acid]
Dose (LD50) [2]: 40 mg/kg

CC(=O)O.CN(C)C(=N)NC(=N)N [Metformin acetate, N,N-dimethyl imidodicarbonimidic diamide acetate]
hygroscopicity compared with metformin hydrochloride [3]: lower than that of the metformin hydrochloride
Hygroscopicity ([3]; 1 day): 0.35%
Hygroscopicity ([3]; 2 days): 0.93%
Hygroscopicity ([3]; 3 days): 1.37%
Hygroscopicity ([3]; 6 days): 11.21%
Hygroscopicity ([3]; 9 days): 23.32%
decrease of glucose concentration versus control group ([4]; 10 hours after administration): about 7.5 mmol/L
effect of drop in blood glucose compared with metformin hydrochloride ([4]; alloxan rats): more excellent than that of metformin hydrochloride
glucose concentration in blood ([4]; alloxan rats, 0 hours): 13.8 mmol/L
glucose concentration in blood ([4]; alloxan rats, 2 hours): 6.4 mmol/L
glucose concentration in blood ([4]; alloxan rats, 4 hours): 7.5 mmol/L
glucose concentration in blood ([4]; alloxan rats, 6 hours): 6.8 mmol/L
glucose concentration in blood ([4]; alloxan rats, 8 hours): 5.9 mmol/L
glucose concentration in blood ([4]; alloxan rats, 10 hours): 6.9 mmol/L
effect of drop in blood glucose ([5]; 100 mg/kg (G2), 240 minutes): effect of drop in blood glucose could be observed
glucose concentration in blood [5, 6]: 101.63 ± 4.94 mg/dL
glucose concentration in blood [5, 7]: 212.00 ± 15.68 mg/dL
glucose concentration in blood [5, 8]: 170.75 ± 17.38 mg/dL
glucose concentration in blood [5, 9]: 134.50 ± 15.64 mg/dL
glucose concentration in blood [5, 10]: 106.63 ± 10.44 mg/dL
glucose concentration in blood [5, 11]: 63.63 ± 4.94 mg/dL
effect of drop in blood glucose ([5]; 200 mg/kg (G3), 120 minutes): effect of drop in blood glucose could be observed
effect of drop in blood glucose ([5]; 200 mg/kg (G3), 240 minutes): effect of drop in blood glucose could be observed
effect of drop in blood glucose compared to G8 (excipient control) ([5]; 200 mg/kg (G3, G6)): effect of drop in blood glucose could be observed
glucose concentration in blood [5, 12]: 101.63 ± 4.58 mg/dL
glucose concentration in blood [5, 13]: 213.13 ± 11.36 mg/dL
glucose concentration in blood [5, 14]: 201.00 ± 21.78 mg/dL
glucose concentration in blood [5, 15]: 165.75 ± 15.91 mg/dL
glucose concentration in blood [5, 16]: 129.63 ± 8.08 mg/dL
glucose concentration in blood [5, 17]: 106.38 ± 4.07 mg/dL
glucose concentration in blood [5, 18]: 80.00 ± 3.73 mg/dL
effect of drop in blood glucose compared to G8 (excipient control) ([5]; 400 mg/kg (G4, G7)): effect of drop in blood glucose could be observed
glucose concentration in blood [5, 19]: 104.13 ± 6.53 mg/dL
glucose concentration in blood [5, 20]: 190.25 ± 16.05 mg/dL
glucose concentration in blood [5, 21]: 169.63 ± 21.19 mg/dL
glucose concentration in blood [5, 22]: 141.50 ± 18.24 mg/dL
glucose concentration in blood [5, 23]: 106.38 ± 13.75 mg/dL
glucose concentration in blood [5, 24]: 86.25 ± 11.25 mg/dL
glucose concentration in blood [5, 25]: 69.25 ± 7.96 mg/dL
effect of drop in blood glucose compared with metformin hydrochloride ([5]; 200 and 400 mg/kg dosage group, 20 to 60 minutes after administration of sucrose): higher effect of drop in blood glucose than that of the metformin hydrochloride
effect of drop in blood glucose after meal compared with metformin hydrochloride ([5]; overall inference from Table 11): more excellent than that of the metformin hydrochloride

CN(C)C(=N)N=C(N)N [Metformin hydrochloride, metformin hydrochloride, reference compound]
Hygroscopicity ([3]; 1 day): 6.29%
Hygroscopicity ([3]; 2 days): 11.86%
Hygroscopicity ([3]; 3 days): 23.3%
Hygroscopicity ([3]; 6 days): 60.33%
Hygroscopicity ([3]; 9 days): 68.78%
glucose concentration in blood ([4]; alloxan rats, 0 hours): 13.8 mmol/L
glucose concentration in blood ([4]; alloxan rats, 2 hours): 7.8 mmol/L
glucose concentration in blood ([4]; alloxan rats, 4 hours): 6.4 mmol/L
glucose concentration in blood ([4]; alloxan rats, 6 hours): 8.6 mmol/L
glucose concentration in blood ([4]; alloxan rats, 8 hours): 7.9 mmol/L
glucose concentration in blood ([4]; alloxan rats, 10 hours): 9.4 mmol/L
glucose concentration in blood [5, 6]: 104.00 ± 6.53 mg/dL
glucose concentration in blood ([5]; 100 mg/kg oral, 20 min after sucrose 2 g/kg): 246.00 ± 16.70 mg/dL
glucose concentration in blood [5, 7]: 194.38 ± 8.02 mg/dL
glucose concentration in blood [5, 8]: 151.50 ± 5.45 mg/dL
glucose concentration in blood [5, 9]: 122.38 ± 4.69 mg/dL
glucose concentration in blood [5, 10]: 111.75 ± 6.45 mg/dL
glucose concentration in blood [5, 11]: 83.63 ± 3.49 mg/dL
effect of drop in blood glucose compared to G8 (excipient control) ([5]; 200 mg/kg (G3, G6)): effect of drop in blood glucose could be observed
glucose concentration in blood [5, 12]: 107.13 ± 2.84 mg/dL
glucose concentration in blood [5, 13]: 227.50 ± 20.57 mg/dL
glucose concentration in blood [5, 14]: 187.25 ± 15.16 mg/dL
glucose concentration in blood [5, 15]: 147.25 ± 9.89 mg/dL
glucose concentration in blood [5, 16]: 121.25 ± 8.15 mg/dL
glucose concentration in blood [5, 17]: 106.75 ± 5.65 mg/dL
glucose concentration in blood [5, 18]: 87.13 ± 4.50 mg/dL
effect of drop in blood glucose compared to G8 (excipient control) ([5]; 400 mg/kg (G4, G7)): effect of drop in blood glucose could be observed
glucose concentration in blood [5, 19]: 104.75 ± 3.98 mg/dL
glucose concentration in blood [5, 20]: 187.38 ± 10.32 mg/dL
glucose concentration in blood [5, 21]: 167.63 ± 7.04 mg/dL
glucose concentration in blood [5, 22]: 135.63 ± 5.53 mg/dL
glucose concentration in blood [5, 23]: 110.50 ± 4.78 mg/dL
glucose concentration in blood [5, 24]: 87.88 ± 9.90 mg/dL
glucose concentration in blood [5, 25]: 64.38 ± 7.69 mg/dL

From US8541474B2 (Hanall Biopharma Co., Ltd., priority 2007, dated 2013)
